Reference: patent US12415785B2, “Compound modulators of sting” (CTXT PTY LTD, priority 2019, dated 2025)

Key:
[1] = molecular target: human STING (HAQ) (Homo sapiens, UniProt Q86WV6, G230A/H232R/R293Q); test: Differential scanning fluorimetry (DSF), huSTING (HAQ); format: binding; conditions: 2 μM protein, compound 100 μM; Tm with ligand minus Tm of protein alone (1% DMSO); read-out: DSF huSTING (HAQ) ΔTm (° C.)
Outline: (§1)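 Recombinant His-TEV-tagged human STING allelic variants expressed in E. coli and purified by IMAC. Thermal unfolding followed by dye fluorescence (excitation 490 nm, emission 570 nm) from 20° C. to 100° C. in 0.5° C. steps, in triplicate, with and without ligand; Tm taken from the transition inflection point.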

[2] = molecular target: human STING (WT) (Homo sapiens (Human), UniProt Q86WV6, H232R); test: Differential scanning fluorimetry (DSF), huSTING (WT); format: binding; conditions: 2 μM protein, compound 100 μM; Tm with ligand minus Tm of protein alone (1% DMSO); read-out: DSF huSTING (WT) ΔTm (° C.)
human STING (WT), sequence (Q86WV6 other isoform, or with tags, fused parts or gaps, stated change not applied): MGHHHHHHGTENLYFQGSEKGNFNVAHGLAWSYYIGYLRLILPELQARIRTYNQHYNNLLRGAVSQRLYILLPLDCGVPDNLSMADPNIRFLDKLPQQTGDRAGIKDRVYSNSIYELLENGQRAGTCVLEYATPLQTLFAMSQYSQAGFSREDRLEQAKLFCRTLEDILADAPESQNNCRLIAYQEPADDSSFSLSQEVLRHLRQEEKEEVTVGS
Outline: as §1

[3] = molecular target: human HAQ isoform of STING (THP-1 STING Lucia ISG cells) (Homo sapiens (Human), UniProt Q86WV6, G230A/H232R/R293Q/R71H); test: THP-1 STING Lucia ISG reporter cell line assay; format: cell-based; conditions: 24 h incubation, QUANTI-Luc luminescence
human HAQ isoform of STING (THP-1 STING Lucia ISG cells), sequence (Q86WV6 whole entry R71H/G230A/H232R/R293Q, canonical isoform): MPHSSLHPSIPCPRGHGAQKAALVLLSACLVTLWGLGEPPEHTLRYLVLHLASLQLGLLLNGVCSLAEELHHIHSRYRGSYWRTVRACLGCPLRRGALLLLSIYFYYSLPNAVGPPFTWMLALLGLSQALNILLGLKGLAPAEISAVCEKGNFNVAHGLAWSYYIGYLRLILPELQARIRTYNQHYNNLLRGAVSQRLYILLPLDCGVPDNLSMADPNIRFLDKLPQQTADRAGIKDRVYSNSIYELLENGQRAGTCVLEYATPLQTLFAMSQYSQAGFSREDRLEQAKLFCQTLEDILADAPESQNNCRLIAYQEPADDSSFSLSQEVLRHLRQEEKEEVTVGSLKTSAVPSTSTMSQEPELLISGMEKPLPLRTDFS
Outline: (§2)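 THP-1 STING Lucia ISG cells (HAQ STING) or THP-1-Dual KI-hSTING-R232 cells (WT STING) treated 24 h at 37 °C with 11-point, 2.5-fold compound dilutions. ISG-driven Lucia luciferase read by luminescence, normalised to untreated wells and 40 μM ML RR-S2 CDA positive control; EC50 derived.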

[4] = molecular target: WT human STING isoform (THP-1-Dual KI-hSTING-R232 cells) (Homo sapiens (Human), UniProt Q86WV6, H232R); test: THP-1-Dual KI-hSTING-R232 reporter cell line assay; format: cell-based; conditions: 24 h incubation, QUANTI-Luc luminescence
WT human STING isoform (THP-1-Dual KI-hSTING-R232 cells), sequence (Q86WV6 whole entry H232R, canonical isoform): as the sequence (Q86WV6 whole entry R71H/G230A/H232R/R293Q, canonical isoform) above, with H71R, A230G, Q293R counted along it
Outline: as §2

human STING (HAQ), sequence (Q86WV6 whole entry G230A/H232R/R293Q, looked up): as the sequence (Q86WV6 whole entry R71H/G230A/H232R/R293Q, canonical isoform) above, with H71R counted along it

| ΔTm at 100 µM [1] [°C] | ΔTm at 100 µM [2] [°C] | EC50 [3] [µM] | EC50 [4] [µM] | SMILES |
| --- | --- | --- | --- | --- |
| 2.14 | 0.29 | 39.1 | 28.9 | COc1c(C(N)=O)ccc2c1nc(-c1cnccc1C(=O)O)n2CCn1c(-c2cnccc2C(=O)O)nc2c(OC)c(C(N)=O)ccc21 [Example 30, 3,3′-(Ethane-1,2-diylbis(5-carbamoyl-4-methoxy-1H-benzo[d]imidazole-1,2-diyl))diisonicotinic acid] |
| 3.98 | 0.18 | > 40 | > 40 | COc1c(C(N)=O)ccc2c1nc(-c1ncc(Cl)cc1C(=O)O)n2CCn1c(-c2ncc(Cl)cc2C(=O)O)nc2c(OC)c(C(N)=O)ccc21 [Example 31, 2,2′-(Ethane-1,2-diylbis(5-carbamoyl-4-methoxy-1H-benzo[d]imidazole-1,2-diyl))bis(5-chloronicotinic acid)] |
| 3.99 | 0.51 | > 40 | 29.7 | COc1c(C(N)=O)ccc2c1nc(-c1ccc(Cl)cc1-c1noc(=O)[nH]1)n2CCn1c(-c2ccc(Cl)cc2-c2noc(=O)[nH]2)nc2c(OC)c(C(N)=O)ccc21 [Example 32, 1,1′-(Ethane-1,2-diyl)bis(2-(4-chloro-2-(5-oxo-4,5-dihydro-1,2,4-oxadiazol-3-yl)phenyl)-4-methoxy-1H-benzo[d]imidazole-5-carboxamide)] |
| 4.06 | 1.17 | > 40 | > 40 | CCc1ccc(-c2nc3c(OC)c(C(N)=O)ccc3n2CCn2c(-c3ccc(CC)cc3C(=O)O)nc3c(OC)c(C(N)=O)ccc32)c(C(=O)O)c1 [Example 33, 6,6′-(Ethane-1,2-diylbis(5-carbamoyl-4-methoxy-1H-benzo[d]imidazole-1,2-diyl))bis(3-ethylbenzoic acid)] |
| 0.49 | -2.39 | > 40 | > 40 | COc1c(C(N)=O)ccc2c1nc(-c1ccc(Cl)cc1C(=O)O)n2C/C=C/Cn1c(-c2ccc(Cl)cc2C(=O)O)nc2c(OC)c(C(N)=O)ccc21 [Example 34, (E)-6,6′-(But-2-ene-1,4-diylbis(5-carbamoyl-4-methoxy-1H-benzo[d]imidazole-1,2-diyl))bis(3-chlorobenzoic acid)] |
| 1.28 | -2.51 | > 40 | > 40 | COc1c(C(N)=O)ccc2c1nc(-c1ccc(Cl)cc1C(=O)O)n2CCCn1c(-c2ccc(Cl)cc2C(=O)O)nc2c(OC)c(C(N)=O)ccc21 [Example 35, 6,6′-(Propane-1,3-diylbis(5-carbamoyl-4-methoxy-1H-benzo[d]imidazole-1,2-diyl))bis(3-chlorobenzoic acid)] |
| 5.24 | 2.04 | > 40 | > 40 | COc1c(C(N)=O)ccc2c1nc(-c1cccc(Br)c1C(=O)O)n2CCn1c(-c2cccc(Br)c2C(=O)O)nc2c(OC)c(C(N)=O)ccc21 [Example 36, 6,6′-(Ethane-1,2-diylbis(5-carbamoyl-4-methoxy-1H-benzo[d]imidazole-1,2-diyl))bis(2-bromobenzoic acid)] |
| 2.8 | -0.24 | > 40 | > 40 | COc1c(C(N)=O)ccc2c1nc(-c1ccc(Cl)c(Cl)c1-c1nn[nH]n1)n2CCn1c(-c2ccc(Cl)c(Cl)c2-c2nn[nH]n2)nc2c(OC)c(C(N)=O)ccc21 [Example 37, 1,1′-(Ethane-1,2-diyl)bis(2-(3,4-dichloro-2-(2H-tetrazol-5-yl)phenyl)-4-methoxy-1H-benzo[d]imidazole-5-carboxamide)] |
| 3.68 | 0.38 | > 40 | > 40 | COc1c(C(N)=O)ccc2c1nc(-c1ccc(C(F)(F)F)cc1C(=O)O)n2CCn1c(-c2ccc(C(F)(F)F)cc2C(=O)O)nc2c(OC)c(C(N)=O)ccc21 [Example 38, 6,6′-(Ethane-1,2-diylbis(5-carbamoyl-4-methoxy-1H-benzo[d]imidazole-1,2-diyl))bis(3-(trifluoromethyl)benzoic acid)] |
| -1.74 | -7.45 | > 40 | > 40 | COc1c(C(N)=O)ccc2c1nc(-c1cccc(Cl)c1-c1nn[nH]n1)n2CCn1c(-c2cccc(Cl)c2-c2nn[nH]n2)nc2c(OC)c(C(N)=O)ccc21 [Example 40, 1,1′-(Ethane-1,2-diyl)bis(2-(3-chloro-2-(2H-tetrazol-5-yl)phenyl)-4-methoxy-1H-benzo[d]imidazole-5-carboxamide)] |
| 4.52 | 1.09 | > 40 | > 40 | COc1ccc(-c2nc3c(OC)c(C(N)=O)ccc3n2CCn2c(-c3ccc(OC)cc3C(=O)O)nc3c(OC)c(C(N)=O)ccc32)c(C(=O)O)c1 [Example 41, 6,6′-(Ethane-1,2-diylbis(5-carbamoyl-4-methoxy-1H-benzo[d]imidazole-1,2-diyl))bis(3-methoxybenzoic acid)] |
| 6.3 | 2.04 | 3.21 | 4.39 | COc1c(C(N)=O)ccc2c1nc(-c1cc(Cl)ccc1-c1nn[nH]n1)n2CCn1c(-c2cc(Cl)ccc2-c2nn[nH]n2)nc2c(OC)c(C(N)=O)ccc21 [Example 42, 1,1′-(Ethane-1,2-diyl)bis(2-(5-chloro-2-(2H-tetrazol-5-yl)phenyl)-4-methoxy-1H-benzo[d]imidazole-5-carboxamide)] |
| 22.2 | 9.87 | 0.574 | 0.44 | COc1c(C(N)=O)ccc2c1nc(-c1c(F)cc(F)cc1-c1nn[nH]n1)n2CCn1c(-c2c(F)cc(F)cc2-c2nn[nH]n2)nc2c(OC)c(C(N)=O)ccc21 [Example 43, 1,1′-(Ethane-1,2-diyl)bis(2-(2,4-difluoro-6-(2H-tetrazol-5-yl)phenyl)-4-methoxy-1H-benzo[d]imidazole-5-carboxamide)] |
| 13.1 | 0.88 | 0.558 | 0.38 | COc1c(C(N)=O)ccc2c1nc(-c1c(F)cc(F)cc1-c1n[nH]c(=O)o1)n2CCn1c(-c2c(F)cc(F)cc2-c2n[nH]c(=O)o2)nc2c(OC)c(C(N)=O)ccc21 [Example 44, 1,1′-(Ethane-1,2-diyl)bis(2-(2,4-difluoro-6-(5-oxo-4,5-dihydro-1,3,4-oxadiazol-2-yl)phenyl)-4-methoxy-1H-benzo[d]imidazole-5-carboxamide)] |
| 1.24 | -0.34 | 6.79 | 3.25 | COc1c(C(N)=O)ccc2c1nc(-c1c(F)cc(Cl)cc1Br)n2CCn1c(-c2c(F)cc(Cl)cc2Br)nc2c(OC)c(C(N)=O)ccc21 [Example 45, 1,1′-(Ethane-1,2-diyl)bis(2-(2-bromo-4-chloro-6-fluorophenyl)-4-methoxy-1H-benzo[d]imidazole-5-carboxamide)] |
| 28.6 | 14.4 | 0.218 | 0.195 | COc1c(C(N)=O)ccc2c1nc(-c1c(F)cc(Cl)cc1-c1nn[nH]n1)n2CCn1c(-c2c(F)cc(Cl)cc2-c2nn[nH]n2)nc2c(OC)c(C(N)=O)ccc21 [Example 46, 1,1′-(Ethane-1,2-diyl)bis(2-(4-chloro-2-fluoro-6-(2H-tetrazol-5-yl)phenyl)-4-methoxy-1H-benzo[d]imidazole-5-carboxamide)] |
| 25.5 | 11.8 | 0.415 | 0.269 | COc1c(C(N)=O)ccc2c1nc(-c1c(F)cccc1-c1nn[nH]n1)n2CCn1c(-c2c(F)cccc2-c2nn[nH]n2)nc2c(OC)c(C(N)=O)ccc21 [Example 48, 1,1′-(Ethane-1,2-diyl)bis(2-(2-fluoro-6-(2H-tetrazol-5-yl)phenyl)-4-methoxy-1H-benzo[d]imidazole-5-carboxamide)] |
| 21.3 | 10.2 | 0.136 | 0.191 | COc1c(C(N)=O)ccc2c1nc(-c1c(F)cccc1-c1n[nH]c(=O)o1)n2CCn1c(-c2c(F)cccc2-c2n[nH]c(=O)o2)nc2c(OC)c(C(N)=O)ccc21 [Example 49, 1,1′-(Ethane-1,2-diyl)bis(2-(2-fluoro-6-(5-oxo-4,5-dihydro-1,3,4-oxadiazol-2-yl)phenyl)-4-methoxy-1H-benzo[d]imidazole-5-carboxamide)] |
| 26.4 | 12.5 | 0.174 | 0.0312 | COc1c(C(N)=O)ccc2c1nc(-c1c(F)cc(Cl)cc1-c1n[nH]c(=O)o1)n2CCn1c(-c2c(F)cc(Cl)cc2-c2n[nH]c(=O)o2)nc2c(OC)c(C(N)=O)ccc21 [Example 50, 1,1′-(Ethane-1,2-diyl)bis(2-(4-chloro-2-fluoro-6-(5-oxo-4,5-dihydro-1,3,4-oxadiazol-2-yl)phenyl)-4-methoxy-1H-benzo[d]imidazole-5-carboxamide)] |
